In patent US20130143230A1, “MICROFLUIDIC-BASED CELL-CULTURING PLATFORM AND METHOD” (The Trustees of the Stevens Institute of Technology, priority 2011, published 2013):

How the values were obtained:
Format in all cases: cell-based, Human
MCF-7 [1] = test: Photodynamic therapy in 2D culture, live/dead staining
From the text: […] After cellular uptake, 5-ALA was converted into photosensitive protoporphyrin (PpIX). […] High ROS concentrations led to cell destruction. To determine the extent of cell damage, the culture was stained with a live/dead staining kit (Sigma) after overnight culture and examined with a Leica confocal microscope.

MCF-7 [2] = test: Photodynamic therapy in 3D cultured breast cancer tissue, live/dead staining; details: 3D tissue, perfusion 4 hours, broadband halogen light 1 minute, stained after overnight culture
Description: A photosensitizer precursor drug, aminolevulinic acid (5-ALA) was supplemented in the culture media delivered to a 3D cultured breast cancer tissue (MCF-7), and allowed to infiltrate the tissue via perfusion for 4 hours to emulate microinjection. After cellular uptake, 5-ALA was converted into photosensitive protoporphyrin (PpIX). […] High ROS concentrations led to cell destruction. To determine the extent of cell damage, the culture was stained with a live/dead staining kit (Sigma) after overnight culture and examined with a Leica confocal microscope.

MCF-7 [3] = test: Drug evaluation in microfluidic 3D breast cancer tissue culture (tissue nodules); details: flow 0.8 μL/min, one week, 3D microfluidic culture
Description: Human breast cancer cells (from immortalized cell line MCF-7) were incubated in a tissue culture chamber for 2 weeks with a continuous media flow at 0.8 μL/min. Initial cell attachment was seen across the entire chamber surface and continuously proliferated over time to form a 3D tissue layer having a depth of about 70-100 μm. […] These structures were similar to those observed in the earliest stages of tumor formation. A majority of the cells remained viable.
In contrast to pure cultures of breast cancer cells, co-cultures with stromal cells stimulate breast cancer cells. […] At three weeks of incubation, the nodule-like structures had become large enough to be recognized under a microscope, reaching 80-150 μm in diameter. Based on histological staining, the organization of these cells was consistent with their cancerous origin. The cells appeared to be transformed, having an increased nuclear/cytoplasmic ratio, and the cell mass was disorganized.
Doxorubicin (Dox), a known anticancer drug, was first tested using the microfluidic breast tissue culture described in the preceding examples. Dox was delivered to the tissue nodules at 10 nM and 1 μM, respectively, at a flow rate of 0.8 μL/min of medium via the inlet for one week.
A new lytic anticancer peptide (L5) was designed and synthesized to interact with cell membranes and therefore disrupt membrane integrity and destroy cells. The peptide drug was delivered to the tissue nodules at 30 μg/mL in the medium at a flow rate of 0.8 μL/min of medium via inlet for 2 days. […] Occasionally, some nuclei were still seen in the remaining tissue matrix. […] This may be due to a reduced rate of diffusion of the drug to the area of the surviving cells. This finding highlights the value of using the microfluidic culture model for drug assessment as it provides a more accurate representation of the 3D cellular organization encountered in vivo. It also hints at a plausible explanation to why some breast cancer therapies fail in vivo or why recurrence and multidrug resistance occurs after chemotherapy. […]

## NCC(=O)CCC(=O)O [5-ALA, aminolevulinic acid]
MCF-7 [1]
  cells killed after PDT treatment: about 70%
MCF-7 [2]
  cells killed after PDT treatment: about 50%

## COc1cccc2c1C(=O)c1c(O)c3c(c(O)c1C2=O)C[C@@](O)(C(=O)CO)C[C@@H]3O[C@H]1C[C@H](N)[C@H](O)[C@H](C)O1 [Dox, Doxorubicin]
MCF-7 [3]; 10 nM in medium
  progression of tumor nodules (real-time images): continuous progression of tumor nodules was observed
MCF-7 [3]; 1 μM in medium
  formation of dark nodules (real-time images): No obvious formation of dark nodules was observed
  tissue growth: continuous tissue growth was noticed
